Measurements reported in ChEMBL document CHEMBL6182883, “Discovery of a series of novel 3-sulfonamido benzoic acid derivatives as promising P2Y14R antagonists for acute lung injury” (Eur J Med Chem, 2025).
pIC50: −log10 of the molar value. Active and inactive are the calls of the source. The calls are words filed in the database; no cut-off is given here.

Tests used:
[1] = biological target: T1, P2Y purinoceptor 14 (Homo sapiens) (UniProt Q15391); assay: Antagonist activity at human P2Y14R expressed in HEK293 cells assessed as inhibition of UDPG-induced Ca2+ level at 5 uM by Fluo-4 dye based fluorescence assay relative to control; format: functional, cell-based
T1 sequence (whole entry): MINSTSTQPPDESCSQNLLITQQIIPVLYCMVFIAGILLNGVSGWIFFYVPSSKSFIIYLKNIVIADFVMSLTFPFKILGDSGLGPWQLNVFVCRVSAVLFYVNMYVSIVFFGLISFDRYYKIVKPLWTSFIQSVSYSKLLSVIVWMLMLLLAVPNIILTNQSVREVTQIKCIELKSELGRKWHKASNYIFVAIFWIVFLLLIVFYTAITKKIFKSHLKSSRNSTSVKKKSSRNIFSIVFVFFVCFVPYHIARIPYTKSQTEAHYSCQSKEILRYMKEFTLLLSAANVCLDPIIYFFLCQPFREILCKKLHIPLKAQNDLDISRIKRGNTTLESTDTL

[2] = biological target: T2, P2Y purinoceptor 14 (Homo sapiens, UniProt Q15391); assay: Antagonist activity at human P2Y14R expressed in HEK293 cells assessed as inhibition of UDPG-induced Ca2+ level by Fluo-4 dye based fluorescence assay; format: functional, cell-based
T2 sequence (Q15391 whole entry): T1 sequence (whole entry)

[3] = test system: Mus musculus; assay: (§1) Antiinflammatory activity in LPS-induced C57BL/6 mouse ALI model assessed as reduction in alveolar wall thickening at 2 mg/kg, po administered once daily via gavage for 7 days followed by endotoxin challenge at 1 hr post last dose and subsequent LPS stimulation and measured after 24 hrs by H and E staining based histopathological assay; format: functional, organism-based; conditions: time 8.0 day
[4] = test system: Mus musculus; assay: as §1, with “neutrophil infiltration” for “alveolar wall thickening”; format: functional, organism-based; conditions: time 8.0 day
[5] = test system: Mus musculus; assay: Antiinflammatory activity in LPS-induced C57BL/6 mouse ALI model assessed as reduction in IL-1beta expression in BALF at 2 mg/kg, po administered once daily via gavage for 7 days followed by endotoxin challenge at 1 hr post last dose and subsequent LPS stimulation and measured after 24 hrs by ELISA; format: functional, organism-based; conditions: time 8.0 day
[6] = test system: Mus musculus; assay: Antiinflammatory activity in LPS-induced C57BL/6 mouse ALI model assessed as reduction in IL-6 expression in BALF at 2 mg/kg, po administered once daily via gavage for 7 days followed by endotoxin challenge at 1 hr post last dose and subsequent LPS stimulation and measured after 24 hrs by ELISA; format: functional, organism-based; conditions: time 8.0 day
[7] = test system: Mus musculus; assay: Antiinflammatory activity in LPS-induced C57BL/6 mouse ALI model assessed as reduction in TNF-alpha expression in BALF at 2 mg/kg, po administered once daily via gavage for 7 days followed by endotoxin challenge at 1 hr post last dose and subsequent LPS stimulation and measured after 24 hrs by ELISA; format: functional, organism-based; conditions: time 8.0 day
[8] = test system: Mus musculus; assay: Antiinflammatory activity in LPS-induced C57BL/6 mouse ALI model assessed as reduction in MPO level in BALF at 2 mg/kg, po administered once daily via gavage for 7 days followed by endotoxin challenge at 1 hr post last dose and subsequent LPS stimulation and measured after 24 hrs by ELISA; format: functional, organism-based; conditions: time 8.0 day

inhibition ([1]; filed as antagonist) [%]	SMILES	further results
85.4	O=C(O)c1cc(NS(=O)(=O)CCc2ccc(F)cc2)cc(-c2ccc(C3CCNCC3)cc2)c1	pIC50 [2]: 7.37
47.8	COc1cccc(S(=O)(=O)Nc2cc(C(=O)O)cc(-c3ccc(C4CCNCC4)cc3)c2)c1	–
–	COc1ccccc1S(=O)(=O)Nc1cc(C(=O)O)cc(-c2ccc(C3CCNCC3)cc2)c1	inhibition [1]: 14.3%
60.5	O=C(O)c1cc(NS(=O)(=O)c2ccc(-c3ccccc3)cc2)cc(-c2ccc(C3CCNCC3)cc2)c1	–
80.1	O=C(O)c1cc(NS(=O)(=O)Cc2ccc(Cl)cc2)cc(-c2ccc(C3CCNCC3)cc2)c1	–
81.6	O=C(O)c1cc(NS(=O)(=O)Cc2ccccc2)cc(-c2ccc(C3CCNCC3)cc2)c1	–
86.4	O=C(O)c1cc(NS(=O)(=O)CCc2ccccc2F)cc(-c2ccc(C3CCNCC3)cc2)c1	pIC50 [2]: 7.42
80.9	O=C(O)c1cc(NS(=O)(=O)c2ccc(Cl)cc2)cc(-c2ccc(C3CCNCC3)cc2)c1	–
92.6	O=C(O)c1cc(NS(=O)(=O)CCc2ccc(Cl)cc2)cc(-c2ccc(C3CCNCC3)cc2)c1	pIC50 [2]: 7.54
–	O=C(O)c1cc(NS(=O)(=O)c2ccc(OC(F)(F)F)cc2)cc(-c2ccc(C3CCNCC3)cc2)c1	inhibition [1]: 32.1%
43.6	O=C(O)c1cc(NS(=O)(=O)c2ccc(-c3ccccc3F)cc2)cc(-c2ccc(C3CCNCC3)cc2)c1	–
81.5	O=C(O)c1cc(NS(=O)(=O)c2ccccc2)cc(-c2ccc(C3CCNCC3)cc2)c1	–
59.7	O=C(O)c1cc(NS(=O)(=O)c2ccc(-c3ccc(F)cc3)cc2)cc(-c2ccc(C3CCNCC3)cc2)c1	–
79.4	O=C(O)c1cc(NS(=O)(=O)c2ccc(-c3ccc(Cl)cc3)cc2)cc(-c2ccc(C3CCNCC3)cc2)c1	–
–	C[C@@H]1C[C@H]2[C@@H]3CCC4=CC(=O)C=C[C@]4(C)[C@@]3(F)[C@@H](O)C[C@]2(C)[C@@]1(O)C(=O)CO	Activity [3]: Active; Activity [4]: Active; Activity [5]: Active; Activity [6]: Active; Activity [7]: Active; Activity [8]: Active
80.6	O=C(O)c1cc(NS(=O)(=O)Cc2ccccc2F)cc(-c2ccc(C3CCNCC3)cc2)c1	–
96.5	O=C(O)c1cc(NS(=O)(=O)Cc2ccc(C(F)(F)F)cc2)cc(-c2ccc(C3CCNCC3)cc2)c1	pIC50 [2]: 7.62
82.6	O=C(O)c1cc(NS(=O)(=O)c2ccc([N+](=O)[O-])cc2)cc(-c2ccc(C3CCNCC3)cc2)c1	–
69.5	CC(C)c1ccc(S(=O)(=O)Nc2cc(C(=O)O)cc(-c3ccc(C4CCNCC4)cc3)c2)cc1	–
